Laboratory results from ChEMBL document CHEMBL3351860, “Synthesis and SAR of thieno[3,2-b]pyridinyl urea derivatives as urotensin-II receptor antagonists” (Bioorg Med Chem Lett, 2014).

Tests used:
Urotensin-2 receptor = target: T1, Urotensin-2 receptor (Homo sapiens, UniProt Q9UKP6); assay: Displacement of europium-labeled urotensin-II from human urotensin-2 receptor expressed in HEK293 cells by TRF assay; assay type: cell-based
T1 sequence (Q9UKP6 whole entry): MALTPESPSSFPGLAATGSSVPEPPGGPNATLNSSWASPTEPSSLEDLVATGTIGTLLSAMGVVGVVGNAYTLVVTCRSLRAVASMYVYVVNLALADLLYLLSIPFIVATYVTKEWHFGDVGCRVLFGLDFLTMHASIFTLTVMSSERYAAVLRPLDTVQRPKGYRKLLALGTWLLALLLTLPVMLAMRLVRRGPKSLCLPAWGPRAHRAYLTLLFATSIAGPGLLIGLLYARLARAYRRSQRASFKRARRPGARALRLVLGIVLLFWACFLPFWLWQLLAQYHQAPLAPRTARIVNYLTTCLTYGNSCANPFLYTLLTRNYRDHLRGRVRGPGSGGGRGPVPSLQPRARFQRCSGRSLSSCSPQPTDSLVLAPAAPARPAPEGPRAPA

[1] = Metabolic stability in human liver microsomes after 30 mins; assay type: ADME; conditions: read-out: Stability
[2] = Metabolic stability in rat liver microsomes after 30 mins; assay type: ADME; conditions: read-out: Stability
CYP3A4 = CYP3A4 (Homo sapiens, UniProt P08684); assay: Inhibition of CYP3A4 (unknown origin) at 10 uM; assay type: ADME
Chain of CYP3A4 (P08684 whole entry): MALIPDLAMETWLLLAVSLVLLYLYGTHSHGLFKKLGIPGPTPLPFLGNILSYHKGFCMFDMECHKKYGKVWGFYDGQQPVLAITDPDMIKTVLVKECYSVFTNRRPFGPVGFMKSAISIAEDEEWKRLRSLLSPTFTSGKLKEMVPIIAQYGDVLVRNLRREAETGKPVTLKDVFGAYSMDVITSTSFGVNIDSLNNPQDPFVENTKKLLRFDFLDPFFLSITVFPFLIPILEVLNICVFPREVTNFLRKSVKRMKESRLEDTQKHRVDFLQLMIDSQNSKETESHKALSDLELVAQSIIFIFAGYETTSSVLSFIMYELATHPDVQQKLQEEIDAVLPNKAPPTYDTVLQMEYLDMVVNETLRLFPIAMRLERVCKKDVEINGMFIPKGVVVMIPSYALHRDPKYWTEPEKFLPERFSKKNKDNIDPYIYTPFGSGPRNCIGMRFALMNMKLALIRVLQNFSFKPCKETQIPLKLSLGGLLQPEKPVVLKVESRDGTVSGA

[3] = target: Voltage-gated inwardly rectifying potassium channel KCNH2 (Homo sapiens, UniProt Q12809); assay: Inhibition of human ERG by patch clam assay
Chain of Voltage-gated inwardly rectifying potassium channel KCNH2 (Q12809 whole entry): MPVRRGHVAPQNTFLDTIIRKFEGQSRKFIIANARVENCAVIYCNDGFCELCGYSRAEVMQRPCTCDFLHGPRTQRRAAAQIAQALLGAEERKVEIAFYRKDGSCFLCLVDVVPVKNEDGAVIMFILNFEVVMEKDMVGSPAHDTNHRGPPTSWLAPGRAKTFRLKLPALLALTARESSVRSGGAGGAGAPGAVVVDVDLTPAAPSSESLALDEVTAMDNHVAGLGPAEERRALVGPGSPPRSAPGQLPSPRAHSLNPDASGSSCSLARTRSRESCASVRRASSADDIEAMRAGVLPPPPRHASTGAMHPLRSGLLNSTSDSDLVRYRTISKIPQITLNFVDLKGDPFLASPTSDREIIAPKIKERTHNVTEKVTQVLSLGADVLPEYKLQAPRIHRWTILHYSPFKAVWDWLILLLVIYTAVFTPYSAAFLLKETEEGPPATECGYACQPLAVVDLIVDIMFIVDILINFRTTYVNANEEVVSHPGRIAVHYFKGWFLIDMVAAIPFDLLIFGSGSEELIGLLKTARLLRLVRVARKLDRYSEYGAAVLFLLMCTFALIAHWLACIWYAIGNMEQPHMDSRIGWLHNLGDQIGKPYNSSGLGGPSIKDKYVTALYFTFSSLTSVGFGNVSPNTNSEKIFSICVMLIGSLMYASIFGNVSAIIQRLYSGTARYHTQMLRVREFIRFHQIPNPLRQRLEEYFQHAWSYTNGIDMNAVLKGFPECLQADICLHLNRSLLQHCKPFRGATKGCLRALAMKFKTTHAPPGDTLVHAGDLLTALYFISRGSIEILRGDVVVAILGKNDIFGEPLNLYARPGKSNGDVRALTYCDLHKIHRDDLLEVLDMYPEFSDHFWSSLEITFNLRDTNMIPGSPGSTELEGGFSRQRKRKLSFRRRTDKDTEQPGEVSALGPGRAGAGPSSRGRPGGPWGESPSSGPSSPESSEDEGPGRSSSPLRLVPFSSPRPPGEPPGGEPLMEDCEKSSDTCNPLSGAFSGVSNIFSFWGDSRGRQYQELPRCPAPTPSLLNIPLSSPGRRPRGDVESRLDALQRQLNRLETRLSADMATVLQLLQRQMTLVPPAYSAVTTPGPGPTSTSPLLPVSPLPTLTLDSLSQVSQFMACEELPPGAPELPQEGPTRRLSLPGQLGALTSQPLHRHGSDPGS

[4] = Permeability of the compound by PAMPA assay; assay type: ADME; conditions: read-out: permeability
[5] = target: T2, Urotensin-2 receptor (Homo sapiens) (UniProt Q9UKP6); assay: Displacement of europium-labeled urotensin-II from human urotensin-2 receptor expressed in HEK293 cells at 10 uM by TRF assay; assay type: cell-based
T2 sequence (whole entry): T1 sequence (Q9UKP6 whole entry)

| IC50 (Urotensin-2 receptor) | Compound | also measured |
| --- | --- | --- |
| 13 nM | O=C(NCCN1CCC(O)(Cc2ccc(F)cc2)CC1)Nc1ccnc2ccsc12 | remaining at 0.5 h [1]: 52%; remaining at 0.5 h [2]: 100%; inhibition at 10 µM (CYP3A4): > 10%; IC50 [3]: 5000 nM; Papp [4]: 0.027 ×10⁻⁶ cm/s |
|  | O=C(NCCN1CCC(O)(Cc2ccccc2)CC1)Nc1ccnc2cc(-c3ccccc3)sc12 | inhibition [5]: 47.3% |
| 930 nM | O=C(NCCN1CCC(O)(Cc2ccccc2)CC1)Nc1ccnc2sccc12 |  |
| 42 nM | O=C(NCCN1CCC(O)(Cc2cccc(Br)c2)CC1)Nc1ccnc2ccsc12 |  |
| 78 nM | Cc1cc2nccc(NC(=O)NCCN3CCC(O)(Cc4ccccc4)CC3)c2s1 |  |
| 450 nM | O=C(NCCN1CCC(O)(Cc2ccccc2)CC1)Nc1ccnc2ccoc12 |  |
| 36 nM | O=C(NCCN1CCC(O)(Cc2ccccc2)CC1)Nc1ccnc2ccsc12 |  |
| 160 nM | Cn1ccc2c(NC(=O)NCCN3CCC(O)(Cc4ccccc4)CC3)ccnc21 |  |
| 26 nM | Cc1cc(NC(=O)NCCN2CCC(O)(Cc3ccccc3)CC2)c2sccc2n1 |  |
| 140 nM | Cc1cccc(CC2(O)CCN(CCNC(=O)Nc3ccnc4ccsc34)CC2)c1 |  |
| 2140 nM | Cn1cnc2c(NC(=O)NCCN3CCC(O)(Cc4ccccc4)CC3)ccnc21 |  |
| 1230 nM | Cc1csc2c(NC(=O)NCCN3CCC(O)(Cc4ccccc4)CC3)ccnc12 |  |
| 600 nM | Cn1ccc2nccc(NC(=O)NCCN3CCC(O)(Cc4ccccc4)CC3)c21 |  |
| 190 nM | Cc1ccc(CC2(O)CCN(CCNC(=O)Nc3ccnc4ccsc34)CC2)cc1 |  |
| 3220 nM | O=C(NCCN1CCC(O)(Cc2ccccc2)CC1)Nc1ccnc2c(Br)csc12 |  |
| 220 nM | Cc1cc(NC(=O)NCCN2CCC(O)(Cc3ccccc3)CC2)c2cnn(C)c2n1 |  |
| 60 nM | CCc1cc(NC(=O)NCCN2CCC(O)(Cc3ccccc3)CC2)c2sccc2n1 |  |
|  | O=C(NCCN1CCC(O)(Cc2ccccc2)CC1)Nc1cc(-c2ccccc2)nc2ccsc12 | inhibition [5]: 25.4% |
| 20 nM | O=C(NCCN1CCC(O)(Cc2ccccc2Br)CC1)Nc1ccnc2ccsc12 |  |
|  | O=C(NCCN1CCC(O)(Cc2ccccc2)CC1)Nc1cc(Cl)nc2ccsc12 | inhibition [5]: 25.6% |
| 20 nM | Cc1ccccc1CC1(O)CCN(CCNC(=O)Nc2ccnc3ccsc23)CC1 |  |
